From patent publication US20250152574A1 (BIOGEN MA INC., priority 2022, published 2025) come the findings set out here.

Where only a bound is given, the exact number is not on record here.

The assay has as its target T1, EBP (Homo sapiens, UniProt Q15125).
T1 construct: HEK293T cells were utilized as the source of EBP enzyme; endogenous in cells; host or cells: HEK293T
Briefly: EBP Functional Assay (EBP immunoaffinity LC-MS assay). The assay is classed as biochemical. The note with it: HEK293T cells as source of EBP enzyme; substrate zymosterol-d5, 37° C. for 4 h; percent conversion to dehydrolathosterol-d5 by LC-APCI MRM MS. A digest of the protocol: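 IC50 comes from a 4-parameter logistic fit of zymosterol-d5-to-product percent conversion, measured by LC-APCI MRM MS after sterol extraction. Compounds were preincubated 30 min with EBP from HEK293T cells before deuterated substrate was added for 4 h at 37° C; Tasin-1 served as reference.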

T1 sequence (Q15125 whole entry): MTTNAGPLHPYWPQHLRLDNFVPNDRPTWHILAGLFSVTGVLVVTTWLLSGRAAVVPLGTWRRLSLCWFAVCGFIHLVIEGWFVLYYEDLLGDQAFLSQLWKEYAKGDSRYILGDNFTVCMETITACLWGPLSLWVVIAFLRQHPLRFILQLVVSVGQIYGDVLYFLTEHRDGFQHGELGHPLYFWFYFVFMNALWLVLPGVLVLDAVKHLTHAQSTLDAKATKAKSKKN

For the compound `Cc1occc1S(=O)(=O)N1CCC2(CCC(N3CC4(COC4)C3)C2)CC1` (stereo not drawn) [Example 105], the 50% inhibitory concentration (IC50) (in general, the midpoint of a concentration-inhibition curve) fell in the range of 0.25 to 1.5 µM. Turning to `O=S(=O)(c1ccc2c(c1)OCCO2)N1CCC2(CCC(N3CC4(COC4)C3)C2)CC1` (stereo not drawn) [Example 107], the IC50 was less than 0.1 µM. In turn, `CCOc1ccc(S(=O)(=O)N2CCC3(CCC(N4CC5(COC5)C4)C3)CC2)cc1` (stereo not drawn) [Example 108] returned an IC50 of 0.25 to 1.5 µM.

In turn, `O=S(=O)(c1ccc(OC(F)F)cc1)N1CCC2(CCC(N3C[C@@H]4C[C@H]3CO4)C2)CC1` (stereo partly drawn) [Example 89, (1S,4S)-5-(8-((4-(difluoromethoxy)phenyl)sulfonyl)-8-azaspiro[4.5]decan-2-yl)-2-oxa-5-azabicyclo[2.2.1]heptane] showed a half-maximal inhibitory concentration (IC50) of 0.1 to 0.25 µM.

The compound `O=S(=O)(c1ccc(OC(F)(F)F)cn1)N1CCC2(CCC(N3CC4(COC4)C3)C2)CC1` (stereo not drawn) [Example 114] gave an IC50 of 0.25 to 1.5 µM. For `COCCN(C)C1CCC2(CCN(S(=O)(=O)c3cc(C)cnc3OC)CC2)C1` (stereo not drawn) [Example 40] the value was 0.1 to 0.25 µM; for `Cc1ccc(S(=O)(=O)N2CCC3(CC2)CC(N2CC(O)C2)CO3)c(Cl)c1` (stereo not drawn) [Example 52, 1-(8-((2-Chloro-4-methylphenyl)sulfonyl)-1-oxa-8-azaspiro[4.5]decan-3-yl)azetidin-3-ol], 0.1 to 0.25 µM. Then `N#Cc1cc(F)cc(S(=O)(=O)N2CCC3(CCC(N4C[C@H]5C[C@@H]4CO5)C3)CC2)c1` (stereo partly drawn) [Example 97, 3-((2-((1R,4R)-2-oxa-5-azabicyclo[2.2.1]heptan-5-yl)-8-azaspiro[4.5]decan-8-yl)sulfonyl)-5-fluorobenzonitrile], with 0.1 to 0.25 µM; and `Cc1ccc(C#N)cc1S(=O)(=O)N1CCC2(CC1)C[C@H](N1CCOCC1)CO2` (single isomer, unassigned) [Example 15b], with 0.25 to 1.5 µM; and `Cc1cc(S(=O)(=O)N2CCC3(CCC(N4C[C@H]5C[C@@H]4CO5)C3)CC2)n(C)n1` (stereo partly drawn) [Example 88, (1R,4R)-5-(8-((1,3-dimethyl-1H-pyrazol-5-yl)sulfonyl)-8-azaspiro[4.5]decan-2-yl)-2-oxa-5-azabicyclo[2.2.1]heptane], with 0.1 to 0.25 µM. Consider `COc1ncc(C)cc1S(=O)(=O)N1CCC2(CC1)CC(N1CC3(COC3)C1)C2` [Example 93, 6-(7-((2-methoxy-5-methylpyridin-3-yl)sulfonyl)-7-azaspiro[3.5]nonan-2-yl)-2-oxa-6-azaspiro[3.3]heptane], for which the IC50 was in the range of 0.1 to 0.25 µM. For the compound `COc1nccc(S(=O)(=O)N2CCC3(CCC(N4CCOCC4)C3)CC2)c1F` (stereo not drawn) [Example 33, 4-(8-((3-Fluoro-2-methoxypyridin-4-yl)sulfonyl)-8-azaspiro[4.5]decan-2-yl)morpholine], the IC50 is less than 0.1 µM. Then `O=S(=O)(c1cnc2ccccc2c1)N1CCC2(CCC(N3CC4(COC4)C3)C2)CC1` (stereo not drawn) [Example 103], with less than 0.1 µM; and `O=S(=O)(c1cc(F)cc(F)c1)N1CCC2(CC1)C[C@H](N1CC3(COC3)C1)CO2` (single isomer, unassigned) [Example 119a], with less than 0.1 µM; and `COc1cc(S(=O)(=O)N2CCC3(CC2)CC(N2CC4(COC4)C2)CO3)c(F)cn1` (stereo not drawn) [Example 115], with 0.25 to 1.5 µM. Consider `Cc1cc(F)c(S(=O)(=O)N2CCC3(CC2)CC(N2CCOCC2)CO3)c(F)c1` (stereo not drawn) [Example 16], for which the 50% inhibitory concentration (IC50) was 0.25 to 1.5 µM. Regarding `Cc1ccc(S(=O)(=O)N2CCC3(CC2)CC(NC2CCOCC2)CO3)c(Cl)c1` (stereo not drawn) [Example 51, 8-((2-Chloro-4-methylphenyl)sulfonyl)-N-(tetrahydro-2H-pyran-4-yl)-1-oxa-8-azaspiro[4.5]decan-3-amine], the IC50 is less than 0.1 µM.

As to `O=S(=O)(c1ccc(OC(F)F)cc1)N1CCC2(CC1)CC(N1CCC3(CCOC3)C1)CO2` (stereo not drawn) [Example 70, 8-((4-(Difluoromethoxy)phenyl)sulfonyl)-3-(2-oxa-7-azaspiro[4.4]nonan-7-yl)-1-oxa-8-azaspiro[4.5]decane], the IC50 lay within 0.25 to 1.5 µM.
